In publication PMC10388363, “Novel 1,4-Dihydropyridines as Specific Binders and Activators of SIRT3 Impair Cell Viability and Clonogenicity and Downregulate Hypoxia-Induced Targets in Cancer Cells” (Journal of Medicinal Chemistry, 2023):

How the values were obtained:
[1] = test system: GDH activity in MDA-MB-231 cells; assay: GDH activity assay in lysates of treated MDA-MB-231 cells; format: cell-based, human; conditions: 50 μM, 4 h
Description: Selected compounds 3a–d were tested in triple-negative breast cancer MDA-MB-231 cells to evaluate their effects on SIRT3 physiological substrates. First, the effect on the activity of GDH (an established SIRT3 substrate activated through deacetylation[60]−[62]) was investigated by a coupled enzyme assay. […] These effects of SIRT3 activators clearly phenocopied those observed in the SIRT3-overexpressing MDA-MB-231 cells (SIRT3^+) (Figure 6).
GDH activity in cells treated or not with the SIRT3 activators 3a–d and the reference compounds 2 and 3 was measured using a GDH activity assay kit (MAK099, Merck) following the manufacturer’s instructions. Briefly, 10^6 cells were lysed in 40 μL of GDH assay buffer and kept for 10 min in ice. Afterward, lysates were centrifuged to collect supernatants. Ten microliters of supernatant were added to 40 μL of GDH buffer and 100 μL of a mix containing GDH assay buffer, developer, and glutamate. The whole mix was transferred into a 96-well plate and incubated at 37 °C for 3 min. Finally, absorbance was read at 450 nm using a GloMax multi detection system (Promega, Milan, Italy). The absorbance of the assay buffer was subtracted from each experimental sample.

[2] = test system: HIF-1α, EPAS-1, and CA-IX protein expression in CAL-62; assay: Western blot of HIF-1α, EPAS-1 and CA-IX in CAL-62 cells under hypoxia; format: cell-based; conditions: CAL-62, 50 μM, 48 h, hypoxia
Description: Based on these findings, we decided to assess the ability of the SIRT3 activators 3a–d to impair HIF-1α, EPAS-1, and CA-IX protein expression in CAL-62 (Figure 10A–F) and MDA-MB-231 (Figure 11A–F) cell lines treated with the compounds at 50 μM for 48 h and under hypoxia conditions.
Breast cancer cell line MDA-MB-231, anaplastic thyroid cancer cell line CAL-62 and human keratinocytes HaCaT were purchased from ATCC and were cultured in RPMI 1640 medium (R0883 Sigma Aldrich-MERCK) (MDA-MB-231 and CAL-62) or DMEM medium (11965092, Gibco) supplemented with 10% fetal bovine serum (Sigma-Aldrich-MERCK, F9665), 2 mM glutamine (G7513; Sigma-Aldrich-MERCK), 100 units/mL penicillin and 0.1 mg/mL streptomycin (P0781; Sigma-Aldrich-MERCK). Adherent cells were detached by Trypsin–EDTA solution (TA049; Sigma-Aldrich-MERCK). Cells were maintained at 37 °C in humidified incubator with 5% CO2. Cells were treated with […] (CoCl2) (Merck; C8661) dissolved in distilled, sterile water for 24 h to induce hypoxia (200 μM). Hypoxic and normoxic cells were also treated with 10/50 μM of the indicated compounds (dissolved in DMSO) for 48 h, maintaining the CoCl2 in the culture medium for hypoxic conditions. SIRT3 inhibitor 3-TYP was dissolved in DMSO and added to a final concentration of 1 μM for 24 and/or 48 h.
The following antibodies were used in this study: ACTB (Merck; A5316), HIF1-α (Cell Signaling; 14179), HIF2/EPAS-1 (Santa Cruz Biotechnology sc-13596), HXKII (Santa Cruz Biotechnology sc-6521), CAIX (Novus Biotechnology NB100-417), SIRT3 (Cell Signaling; 2627S), MnSOD (Abcam ab13533), MnSOD K68 (Abcam ab137037), MnSOD K122 (Abcam ab214675), peroxidase-conjugated AffiniPure Goat Anti-Rabbit IgG (H + L) (Jackson ImmunoResearch; 111-035-003), and peroxidase-conjugated AffiniPure Goat Anti-Mouse IgG (H + L) (Jackson ImmunoResearch; 115-035-062).
Treated and untreated cells were collected and centrifuged at 3000 rpm for 5 min. After removing the supernatant, cells were lysed in 70 μL of lysis buffer containing: 50 mM Tris-Cl (Merck; 93352), 250 mM sodium chloride (NaCl, Merck; S7653), 5 mM ethylenediaminetetraacetic acid (EDTA; Merck; E6758), 0.1% Triton X-100 and 0.1 mM dithiothreitol (Merck; D9163) plus 1 mM phenylmethylsulfonyl fluoride (PMSF, Merck; 93482), protease inhibitor cocktail (PI; Merck; P8340), 1 mM sodium orthovanadate (NA3VO4, Merck; S6508), and 10 mM sodium fluoride (NaF, Merck; 201154) (lysis buffer). After 30 min on ice, samples were centrifuged at 13,000 rpm for 10 min at 4 °C, and the supernatants collected. Protein concentration was determined by the Bradford assay (Bio-Rad; 500-0205). The equivalent of 15 or 50 μg of protein was boiled for 5 min, electrophoresed onto denaturing SDS-PAGE gel, and transferred onto a […] nitrocellulose membrane (Bio-Rad; 162-0115). After blocking with 5% milk, membranes were incubated with the appropriate primary antibody overnight. The next day, after three washes with 0.1% Tween 20 (Merck; P9416) in PBS (PBST) for 30 min at rt, membranes were incubated with the appropriate secondary antibody for 1 h at rt. After three more washes in PBST, the detection of the relevant protein was assessed by enhanced chemiluminescence (Lite Ablot TURBO, Euro-Clone; EMP012001). Densitometric analysis of the bands, relative to ACTB, was performed using ImageJ Software v1.51 (NIH, Bethesda, MD, USA).

| Compound | effect on GDH activity in cell lysates [1] | CA-IX protein expression [2] | EPAS-1 protein expression [2] | GDH activation [1] | HIF-1α protein expression [2] |
| --- | --- | --- | --- | --- | --- |
| CCOC(=O)C1=CN(C(=O)c2cccc(OC)c2)C=C(C(=O)OCC)C1c1ccccc1 [Compound 3a, Diethyl 1-(3-methoxybenzoyl)-4-phenyl-1,4-dihydropyridine-3,5-dicarboxylate] | increase in GDH activity | significantly downregulated |  |  |  |
| CCOC(=O)C1=CN(C(=O)c2ccc(OC)c(OC)c2)C=C(C(=O)OCC)C1c1ccccc1 [Compound 3c, Diethyl 1-(3,4-dimethoxybenzoyl)-4-phenyl-1,4-dihydropyridine-3,5-dicarboxylate] | increase in GDH activity |  | downregulated |  |  |
| CCOC(=O)C1=CN(C(=O)c2cc(OC)cc(OC)c2)C=C(C(=O)OCC)C1c1ccccc1 [Compound 3d, Diethyl 1-(3,5-dimethoxybenzoyl)-4-phenyl-1,4-dihydropyridine-3,5-dicarboxylate] | increase in GDH activity | significantly downregulated | downregulated | around 175% | decrease |
